The subject of assay [1] is CHO cells (subclone DG44). Nature of the assay: Growth of CHO cells in medium with keto leucine instead of L-leucine. The format is cell-based, Chinese hamster. As to conditions: keto leucine as calcium salt instead of L-leucine, up to 178 mg/l, third passage. Here is the method: (§1) Antibody producing chinese hamster ovary (CHO) cells (subclone DG44) were cultivated in shake flasks (125 ml or 250 ml with a culture volume of 50 ml or 100 ml respectively) in TC42/CHOMACS CD culture medium (TeutoCell AG) containing 8 mM L-glutamine. The culture medium was prepared by mixing two solutions. The first contained the conventional medium formulation (containing L-leucine and calcium chloride). In the second, the amino acid L-leucine in the culture medium was substituted by keto leucine (178 mg/l) as calcium salt in equimolar quantities. These solutions were mixed in different ratios. The growth of cells cultivated in the different mixtures was compared to cells cultivated in the conventional culture medium.
A corresponds to cells cultivated in a culture medium containing 178 mg/L of keto leucine, B to a mixture containing 30% (v/v) of the keto leucine solution, C to a mixture containing 5% (v/v) of the keto leucine solution and a reference containing only L-leucine.

Assay [2] has as its system CHO cells (subclone DG44). Nature of the assay: Antibody production in CHO cells with keto leucine instead of L-leucine. The format is cell-based, Chinese hamster. As to conditions: keto leucine as calcium salt, reference normalized to 1.0. Here is the method:
as §1
The concentration of antibody produced by the cells cultivated in the reference culture medium containing L-leucine (Reference) were normalized to 1.0.

Turning to `CC(C)CC(=O)C(=O)O` [keto leucine, alpha-keto isocaproate], in assay [1], the “viable cell density versus reference medium with L-leucine” value is listed as “slightly reduced”. The “antibody production with keto leucine instead of L-leucine” value in assay [2] is recorded as “L-leucine can be substituted”.

These data come from patent US20210355435A1, “CULTURE MEDIUM COMPRISING KETO ACIDS” (Evonik Operations GmbH, priority 2018, published 2021).
